Results: patent US8293773B2, “1, 2, 3-triazole derivatives as new cannabinoid-1 receptor antagonists” (National Tsing Hua University, priority 2008, dated 2012)

How the values were obtained:
human CB1 receptor = target: T1, human CB1 receptor (Homo sapiens, UniProt P21554); assay: competitive radioligand binding assay, displacement of [3H]CP55,940, CB1; conditions: for IC50: displacement of specific [3H]-CP55940 binding in HEK 293 cells stably transfected with human CB1 receptor
T1 construct: expressed in transfected cells; membrane-enriched fractions
T1 sequence (P21554 whole entry): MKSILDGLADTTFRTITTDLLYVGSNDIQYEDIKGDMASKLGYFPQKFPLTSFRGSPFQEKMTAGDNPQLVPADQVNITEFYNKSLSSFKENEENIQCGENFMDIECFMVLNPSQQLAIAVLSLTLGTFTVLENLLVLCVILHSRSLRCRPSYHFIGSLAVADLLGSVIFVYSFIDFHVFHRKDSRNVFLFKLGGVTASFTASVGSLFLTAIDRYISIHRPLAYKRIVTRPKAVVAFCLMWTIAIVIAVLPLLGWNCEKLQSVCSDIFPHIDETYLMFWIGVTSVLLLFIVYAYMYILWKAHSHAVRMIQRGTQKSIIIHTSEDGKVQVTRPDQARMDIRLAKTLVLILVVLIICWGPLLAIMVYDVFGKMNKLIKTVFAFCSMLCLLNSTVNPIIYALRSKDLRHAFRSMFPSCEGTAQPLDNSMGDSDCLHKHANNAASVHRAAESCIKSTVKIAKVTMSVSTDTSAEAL
How it was run: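 Test compound competed with 0.75 nM [3H]CP55,940 for 1.5 hours at 30° C (pH 7.4 Tris buffer with 0.3% BSA) on 0.2˜8 μg membrane fractions from stable human CB1 or CB2 cell lines. Bound radioactivity on washed filters was counted; 1 μM CP55,940 defined non-specific binding.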

human CB2 receptor = target: T2, human CB2 receptor (Homo sapiens, UniProt P34972); assay: competitive radioligand binding assay, displacement of [3H]CP55,940, CB2
T2 construct: expressed in transfected cells; membrane-enriched fractions
T2 sequence (P34972 whole entry): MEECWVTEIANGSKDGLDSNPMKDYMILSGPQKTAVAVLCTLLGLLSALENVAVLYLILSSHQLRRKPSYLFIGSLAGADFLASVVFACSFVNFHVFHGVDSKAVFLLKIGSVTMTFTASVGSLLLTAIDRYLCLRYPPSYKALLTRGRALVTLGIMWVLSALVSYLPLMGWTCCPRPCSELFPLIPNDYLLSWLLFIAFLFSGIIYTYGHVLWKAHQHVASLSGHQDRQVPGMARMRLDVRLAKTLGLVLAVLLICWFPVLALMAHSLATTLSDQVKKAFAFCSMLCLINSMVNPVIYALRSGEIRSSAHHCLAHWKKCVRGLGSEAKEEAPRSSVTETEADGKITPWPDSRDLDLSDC
Experimental: In addition, the affinity of test compounds of this invention toward CB1 and CB2 receptors was determined by competitive radioligand binding assays in vitro. This method differentiates the binding strength between compounds by their abilities in displacing a receptor-specific radioactive ligand. […] The readings of the radioactivity retained allow further analysis of receptor binding, and assist in predictions of the pharmacological activities of the test compounds.
In the assays, CB1 receptors are from human CB1 stably expressed cell lines, and CB2 receptors are from human CB2 stably expressed cell lines. For purification of membrane-enriched fractions, cells were scraped off from the culture dishes in ice-cold buffer A (50 mM Tris, 5 mM MgCl2, 2.5 mM EDTA, pH 7.4, 10% sucrose) with 1 mM PMSF. After sonication, the membrane-enriched fractions were centrifuged for 15 minutes at 2,000×g at 4° C. The supernatant was centrifuged again for 30 minutes at 43,000×g at 4° C. The final pellet was re-suspended in buffer A and stored at −80° C. The protein concentration of the purified membrane was determined by the Bradford method as described by the manual provided by Bio-Rad Laboratories, Inc., Hercules, Calif.
During the receptor binding experiments, 0.2˜8 μg of membrane fractions were incubated with 0.75 nM [^3H]CP55,940 and a test compound in the incubation buffer of 50 mM Tris-HCl, 5 mM MgCl2, 1 mM EDTA, 0.3% BSA, pH 7.4. The non-specific binding was determined by using 1 μM of CP55,940. The mixture was incubated for 1.5 hours at 30° C. in Multiscreen microplates (Millipore, Billerica, Mass.). At the completion of the incubation, the reaction was terminated by Manifold filtration and washed with ice-cold wash buffer (50 mM Tris, pH 7.4, 0.25% BSA) four times. The radioactivity bound to the filters was measured by Topcount (Perkin Elmer Inc.).

[1] = Table 2, percent inhibition at 10 μM

inhibition at 10 µM (human CB1 receptor; [1])	IC50 (human CB1 receptor)	IC50 (human CB2 receptor; cells printed in μM)	IC50 (human CB2 receptor; human CB2 stably expressed cell line membranes)	CB1 Inhibition (%) (10 μM) (human CB1 receptor; Table 2, percent inhibition at 10 μM, 10 µM)	Structure (SMILES)
89.8%	152 ± 71 nM	> 10 µM	–	–	O=C(Cn1nc(-c2ccc(Cl)cc2)c(-c2ccc(Cl)cc2Cl)n1)NCc1cc(F)ccc1F [Compound 165]
93.7%	–	–	5.9 ± 0.764 µM	–	O=C(Cn1nc(-c2ccc(Cl)cc2Cl)c(-c2ccc(Cl)cc2Cl)n1)N1CCCCC1 [Compound 120]
–	82.9 ± 7 nM	> 10 µM	–	–	O=C(Cn1nc(-c2ccc(Cl)cc2Cl)c(-c2ccc(Cl)cc2Cl)n1)NCc1ccc(F)c(F)c1 [Compound 198]
93.9%	204 ± 78.1 nM	> 10 µM	–	–	O=C(Cn1nc(-c2ccc(Cl)cc2)c(-c2ccc(Cl)cc2Cl)n1)NCc1ccccc1 [Compound 168]
–	51.7 ± 15.5 nM	> 10 µM	–	–	Cc1cccc(CNC(=O)Cn2nc(-c3ccc(Cl)cc3Cl)c(-c3ccc(Cl)cc3Cl)n2)c1 [Compound 188]
–	48 ± 11.1 nM	> 10 µM	–	–	CC(NC(=O)Cn1nc(-c2ccc(Cl)cc2Cl)c(-c2ccc(Cl)cc2Cl)n1)c1ccccc1 (centres unmarked) [Compound 202]
99.5%	251 ± 88.1 nM	> 10 µM	–	–	O=C(Cn1nc(-c2ccc(Cl)cc2Cl)c(-c2ccc(Cl)cc2Cl)n1)Nc1ccccc1 [Compound 147]
–	48.9 ± 12 nM	> 10 µM	–	–	O=C(Cn1nc(-c2ccc(Cl)cc2Cl)c(-c2ccc(Cl)cc2Cl)n1)NCc1ccccc1Cl [Compound 191]
–	125 ± 23.1 nM	> 10 µM	–	–	COc1ccccc1CNC(=O)Cn1nc(-c2ccc(Cl)cc2Cl)c(-c2ccc(Cl)cc2Cl)n1 [Compound 196]
–	22 ± 6.1 nM	> 10 µM	–	–	O=C(Cn1nc(-c2ccc(Cl)cc2Cl)c(-c2ccc(Cl)cc2Cl)n1)NCc1cc(F)ccc1F [Compound 184]
90.5%	449 ± 67.9 nM	> 10 µM	–	–	O=C(Cn1nc(-c2ccc(Cl)cc2)c(-c2ccc(Cl)cc2Cl)n1)NCc1ccc(F)cc1 [Compound 162]
90.3%	1170 ± 263 nM	> 10 µM	–	–	CCCCOC(=O)Cn1nc(-c2ccc(Cl)cc2Cl)c(-c2ccc(Cl)cc2Cl)n1 [Compound 111]
–	64.8 ± 10.5 nM	> 10 µM	–	–	O=C(Cn1nc(-c2ccc(Cl)cc2Cl)c(-c2ccc(Cl)cc2Cl)n1)NCc1ccc(Cl)cc1 [Compound 192]
–	144 ± 110 nM	> 10 µM	–	91.40%	O=C(Cn1nc(-c2ccc(Cl)cc2Cl)c(-c2ccc(Cl)cc2Cl)n1)NC1CCCCC1 [Compound 125]
–	25.7 ± 2.9 nM	> 10 µM	–	–	O=C(Cn1nc(-c2ccc(Cl)cc2Cl)c(-c2ccc(Cl)cc2Cl)n1)NCc1cccc(F)c1 [Compound 170]
94.8%	81.9 ± 44.2 nM	> 10 µM	–	–	COc1ccc(CNC(=O)Cn2nc(-c3ccc(Cl)cc3Cl)c(-c3ccc(Cl)cc3Cl)n2)cc1 [Compound 146]
–	11.6 ± 3.4 nM	> 10 µM	–	–	O=C(Cn1nc(-c2ccc(Cl)cc2Cl)c(-c2ccc(Cl)cc2Cl)n1)NCc1ccc(F)cc1 [Compound 171]
99.3%	66.9 ± 8.9 nM	> 10 µM	–	–	O=C(Cn1nc(-c2ccc(Cl)cc2Cl)c(-c2ccc(Cl)cc2Cl)n1)NCc1ccccc1 [Compound 122]
